Test system: AM2.2 cells FAP-GPR32, fluorogen binding, flow cytometry MCF
Experiment: fluorogen binding to FAP-tagged GPR32, dose response, counter-screen for beta2AR agonist internalization project, human GPR32, AM2.2 cells, powder set 3 (AID 651853)

Q: Which EC50 does the source give for `C=CCn1c(CCNC(=O)c2cccs2)nnc1SCC(=O)c1ccc(Br)cc1` here?
A: 10 nM

Q: With `Clc1cccc(-c2nnc(SCc3nc4ccccc4[nH]3)n2Cc2ccco2)c1` as the compound, how does the EC50 read?
A: 7180 nM

Q: For `COc1ccc(OC)c(CCNC(=O)C2CCN(c3nnc(-n4cccc4)s3)CC2)c1`, which EC50 is on record?
A: 1420 nM

Q: With `CC(Sc1nc(-c2ccccc2)cc(C(F)(F)F)n1)C(=O)N1CCOCC1` (stereo not given) as the compound, how does the EC50 read?
A: 20 nM

Q: How did the EC50 turn out when `CN(Cc1ccccc1)S(=O)(=O)c1ccc(NS(=O)(=O)Cc2ccccc2)cc1` was run?
A: 50 nM

Q: How did the EC50 turn out when `Cc1ccccc1N1CCN(c2ncnc3c2cnn3Cc2ccc(Cl)cc2)CC1` was run?
A: 2170 nM

Q: For `Cn1c(N2CCN(c3ccccn3)CC2)nc2c1c(=O)n(Cc1ccc(Cl)cc1)c(=O)n2C`, which EC50 is on record?
A: 10 nM

Q: How did the EC50 turn out when `Cc1ncc(CN2CCCC(C(=O)Nc3ccc(-c4cccc(F)c4)cc3)C2)s1` (stereo not given) was run?
A: 870 nM

Q: How did the EC50 turn out when `CC(=O)Nc1ccc(S(=O)(=O)N2CCC(Oc3ccc(-n4cnnn4)cc3)CC2)cc1` was run?
A: 40 nM

Q: For `O=C(c1cc2c(=O)n3ccccc3nc2s1)N1CCN(Cc2ccc3c(c2)OCO3)CC1`, which EC50 is on record?
A: 110 nM

Q: `Cc1ccc(NC(=O)C(c2ccc(Cl)cc2)N2CCOCC2)cc1` (stereo not given) was tested. Which EC50 did it give?
A: 920 nM

Q: With `CC1(C)Cc2c(c(N3CCCC3)nc3sc4c(N5CCN(CCO)CC5)ncnc4c23)CO1` as the compound, how does the EC50 read?
A: 2560 nM

Q: With `CC(Oc1ccc(Cl)cc1Cl)c1nc(-c2ccc(NC(=O)c3ccco3)cc2)no1` (stereo not given) as the compound, how does the EC50 read?
A: 230 nM

Q: For `Cc1ccc(Cn2ccc(NC(=O)c3cc4nc(-c5ccco5)cc(C(F)(F)F)n4n3)n2)cc1`, which EC50 is on record?
A: 10 nM

Q: For `CSc1nc(SCCO)c2sc3nc(-c4ccco4)c4c(c3c2n1)CC(C)(C)OC4`, which EC50 is on record?
A: 1810 nM

Q: For `CC(Sc1nc(-c2ccccc2)cc(C(F)(F)F)n1)C(=O)N1CCCCC1` (stereo not given), which EC50 is on record?
A: 10 nM

Q: Which EC50 does the source give for `Cc1ccc(OCc2cc(C(=O)N(C)Cc3cnn(-c4ccccc4C)c3)no2)cn1` here?
A: 60 nM

Q: Which EC50 does the source give for `CC(C)Cc1nc2sc3c(NCc4ccco4)ncnc3c2c2c1COC(C)(C)C2` here?
A: 20 nM

Q: `Clc1ccc(OCc2nnc(SCc3nc4ccccc4[nH]3)n2Cc2ccco2)cc1` was tested. Which EC50 did it give?
A: 10 nM

Q: `CC(Oc1ccc(Cl)cc1Cl)c1nc(-c2ccc(NC(=O)c3ccccn3)cc2)no1` (stereo not given) was tested. Which EC50 did it give?
A: 120 nM

Reference: PubChem BioAssay AID651853 (NMMLSC, 2012)
